According to patent US11149046B2, “Antibacterial sideromycins” (Hsiri Therapeutics, Inc., priority 2014, dated 2021):
≈ marks a conversion by molar mass, not a printed value. Entries after “also recorded” stand apart in the source; their conditions may differ. Read-outs that look alike come from different tables or passages of the source. One block for each molecule: values may come before it.

Columns and labels:
Pa6 = test: MIC determination; assay type: cell-based, Pseudomonas aeruginosa; settings: Pseudomonas aeruginosa
Excerpt: (§1) MIC (minimum inhibition concentration) is given in μM and AD (agar diffusion zones of inhibition are given in mm from Kirby-Bauer Petri dish growth inhibition studies).

P. aeruginosa KW799/wt = test: MIC determination; assay type: cell-based, Pseudomonas aeruginosa
Excerpt: (§2) Table 3 that was included in the first Example 4 section provides antibacterial data for the first synthetic sideromycins we prepared and studied. The second Example 4 section elaborated and expanded on that data with inclusion of representative antibacterial data in the text and associated pictures of Petri dish assays. MIC (minimum inhibition concentration) is given in μM and AD (agar diffusion zones of inhibition are given in mm from Kirby-Bauer Petri dish growth inhibition studies).

A. baumannii ATCC 17961 = test: MIC determination; assay type: cell-based, Acinetobacter baumannii
Excerpt: as §2

[1] = system: Pseudomonas aeruginosa 01 (Pa01); test: MIC determination; assay type: cell-based; settings: read-out: MIC
Excerpt: as §2

[2] = system: strains of Pseudomonas and Acinetobacter; test: Antibacterial activity, general statements; assay type: cell-based; settings: general statements of the text
Procedure: Antibiotic activity was determined using agar diffusion assays against representative Gram-negative bacteria, including Pseudomonas aeruginosa (Pa6), and several multidrug resistant forms of Acinetobacter baumannii. Representative results are shown in Table 1 and a corresponding picture of an actual petri dish showing the agar diffusion results (FIG. 4). […].

Pa4 = test: MIC determination; assay type: cell-based, Pseudomonas aeruginosa; settings: Pseudomonas aeruginosa
Excerpt: as §2

[3] = system: Pa-Da-1304 CF patient isolate; test: MIC determination; assay type: cell-based, Pseudomonas aeruginosa; settings: for MIC: Pseudomonas aeruginosa; for susceptibility of the clinical isolate (in words): preliminary tests
Excerpt: as §1
We obtained a clinical isolate of Pseudomonas from a cystic fibrosis patient.

[4] = system: Acinetobacter baumannii ATCC 17961; test: Agar diffusion (Kirby-Bauer) assay, with and without hydrogel; assay type: cell-based; settings: for AD = agar diffusion inhibition zones: Table 5, head prints A. baumannii only; for zones of inhibition (in words): Acinetobacter, FIG. 8, 9, 10
Excerpt: as §2
We investigated whether the sideromycin absorbed in the gel be able to diffuse out of the gel and into the agar to effect antibacterial growth. As a control, the sideromycin alone, without gel, was added in a separate 9 mm well, as usual.
The second question was whether the sideromycin continue to be released and be able to effect bacterial growth inhibition over extended periods. Thus, additional identical agar plates were prepared and stored at 4° C. for 24, 48 and 72 hours to allow diffusion of the sideromycin (control and gel forms) into the agar before allowing the bacteria to grow in an incubator. Then after each time period, the Petri dishes were incubated at 37° C. for 20 hours to promote bacteria growth in the agar. […] The study has been extended to as long as 168 hours (one week) with retention of antibiotic effectiveness.

E. coli DC0 [5] = test: Agar diffusion (Kirby-Bauer) assay; assay type: cell-based; settings: Table 5
Excerpt: as §2

E. coli DC2 = test: Agar diffusion (Kirby-Bauer) assay; assay type: cell-based; settings: Table 5
Excerpt: as §2

[6] = system: Pseudomonas aeruginosa KW799/61; assay type: cell-based; settings: for AD = agar diffusion inhibition zones: Table 5
Excerpt: as §1

[7] = system: Pseudomonas aeruginosa KW799/wt; test: Agar diffusion (Kirby-Bauer) assay; assay type: cell-based; settings: for zones of inhibition (in words): wild type Pseudomonas, FIG. 8, 9, 12
Excerpt: as §2

[8] = system: P. aeruginosa KW799/61 (permeability mutant); test: microbe, parasite or virus in culture; assay type: cell-based, Pseudomonas aeruginosa; settings: Pseudomonas aeruginosa
Excerpt: as §1

E. coli DC0 [9] = test: MIC determination; assay type: cell-based; settings: Escherichia coli, DC0; Table 5; read-out: MIC
Excerpt: as §2

[10] = system: E. coli DC2 (permeability mutant); test: MIC determination; assay type: cell-based; settings: Escherichia coli
Excerpt: as §2

[11] = Acinetobacter baumannii, ATCC17961, Table 7, read-out: MIC
[12] = Pseudomonas aeruginosa, Table 7
[13] = Pseudomonas aeruginosa, KW799/WT, Table 5, read-out: MIC
[14] = Acinetobacter baumannii, ATCC17961, Table 5, head prints A. baumannii only, read-out: MIC
[15] = Pseudomonas aeruginosa, Table 5

Compound: CC(=O)Oc1cccc(C(=O)NCCCCN(CCCNC(=O)c2cccc(OC(C)=O)c2OC(C)=O)C(=O)CCC(=O)N[C@@H](CCCN(O)C(C)=O)C(=O)N[C@@H](C(=O)N[C@@H]2C(=O)N3C(C(=O)O)=C(Cl)CCC23)c2ccccc2)c1OC(C)=O (some centres unmarked) [MG-1-185]
- MIC (P. aeruginosa KW799/wt; Pseudomonas aeruginosa, KW799/WT, Table 6, read-out: MIC): 1.56 µM (≈ 1.86 µg/mL)
- MIC (Pa4; Table 6): > 50 µM
- MIC (Pa6; Table 6, read-out: MIC): > 50 µM
- MIC ([3]; Table 6): > 50 µM
- MIC (A. baumannii ATCC 17961; Acinetobacter baumannii, ATCC17961, Table 6, head prints A. baumannii only, read-out: MIC): 0.2 µM (≈ 0.238 µg/mL)
- MIC ([1]; Pseudomonas aeruginosa, Table 6): > 50 µM

Compound: CC1(C)S[C@@H]2[C@H](NC(=O)[C@H](N)c3ccc(O)cc3)C(=O)N2[C@H]1C(=O)O [amoxicillin, reference compound]
- susceptibility of the clinical isolate (in words) [3]: resistant

Compound: CC(C)(C)OC(=O)NCCCCCN(O)C(=O)CCC(=O)N[C@@H](C(=O)N[C@@H]1C(=O)N2C1SC(C)(C)[C@@H]2C(=O)O)c1ccccc1 (some centres unmarked) [YML-I-27]
- AD = agar diffusion inhibition zones (E. coli DC0 [5]): (AD = 0) mm
- AD = agar diffusion inhibition zones (E. coli DC2): (AD = 26) mm
- AD = agar diffusion inhibition zones [6]: (AD = 24) (AD = 24) mm
- AD = agar diffusion inhibition zones [4]: (AD = 17) mm

Compound: CC(=O)Oc1cccc(C(=O)N(CCCCNC(=O)c2cccc(OC(C)=O)c2OC(C)=O)CC(=O)N[C@H](C(=O)N[C@@H]2C(=O)N3C(C(=O)O)=C(Cl)CC[C@H]23)c2ccccc2)c1O [YML-I-57]
- MIC (P. aeruginosa KW799/wt; [13]): 0.025 µM (≈ 0.0219 µg/mL)
- MIC (Pa4; Table 5): 12 µM (≈ 10.5 µg/mL)
- MIC [8]: 0.125 µM (≈ 0.11 µg/mL)
- MIC (Pa6; Table 5, read-out: MIC): 1.56 µM (≈ 1.37 µg/mL)
- MIC ([3]; Table 5): > 100 µM
- MIC (A. baumannii ATCC 17961; [14]): 0.02 to 0.0625 µM (≈ 0.0175 to 0.0548 µg/mL)
- MIC (E. coli DC0 [9]): 0.006 µM (≈ 0.00526 µg/mL)
- MIC [10]: 0.006 µM (≈ 0.00526 µg/mL)
- MIC [1, 15]: 0.78 µM (≈ 0.683 µg/mL)
- antibacterial activity (in words) [2]: comparable to the fully acetylated version, YML-1-45

Compound: CC(=O)Oc1cccc(C(=O)NCCCCN(CC(=O)N[C@@H](C(=O)N[C@@H]2C(=O)N3C2SC(C)(C)[C@@H]3C(=O)O)c2ccccc2)C(=O)c2cccc(O)c2O)c1OC(C)=O (some centres unmarked) [YML-I-62]
- MIC (P. aeruginosa KW799/wt; [13]): 0.0156 µM (≈ 0.013 µg/mL)
- MIC (Pa4; Table 5): 0.0156 µM (≈ 0.013 µg/mL)
- MIC [8]: 0.0078 µM (≈ 0.0065 µg/mL)
- MIC (Pa6; beta-lactamase producer strain, read-out: MIC): > 100 µM
- MIC (Pa6; in the presence of potassium clavulanate, read-out: MIC with added beta-lactamase inhibitor): 0.0625 µM
- MIC ([3]; Table 5): 0.78 µM (≈ 0.65 µg/mL)
- MIC ([3]; clinical isolate from a cystic fibrosis patient): 0.4 to 0.75 µM (≈ 0.334 to 0.625 µg/mL)
- MIC (A. baumannii ATCC 17961; [14]): 0.25 µM (≈ 0.208 µg/mL)
- MIC (A. baumannii ATCC 17961; [11]): 0.25 µM (≈ 0.208 µg/mL)
- MIC [1, 15]: 0.0156 µM (≈ 0.013 µg/mL)
- zones of inhibition (in words) [7]: potently active

Compound: CC(=O)Oc1cccc(C(=O)NCCCCN(CC(=O)N[C@H](C(=O)N[C@@H]2C(=O)N3C(C(=O)O)=C(Cl)CC[C@H]23)c2ccccc2)C(=O)c2cccc(OC(C)=O)c2OC(C)=O)c1OC(C)=O [YML-1-45cr]
- AD = agar diffusion inhibition zones (E. coli DC0 [5]): (AD = 31) mm
- AD = agar diffusion inhibition zones (E. coli DC2): (AD = 38) mm
- AD = agar diffusion inhibition zones ([7]; Table 5): (AD = 18) mm
- zones of inhibition (in words) [7]: sizable zone of inhibition; also recorded: impressive zones of inhibition; also recorded: significant activity
- AD = agar diffusion inhibition zones [6]: (AD = 23) mm
- zones of inhibition (in words) ([6]; outer membrane permeable mutant, FIG. 9 center panel): significant activity
- zones of inhibition (in words) [4]: zones comparable to or even larger than our first sideromycin, 21; also recorded: impressive zones of inhibition
- AD = agar diffusion inhibition zones [4]: (AD = 18) mm

Now from value to molecule, other results behind:

- MIC (Pa6; Table 6, read-out: MIC): > 50 µM
Compound: CC(=O)Oc1cccc(C(=O)NCCCCN(CCCNC(=O)c2cccc(OC(C)=O)c2OC(C)=O)C(=O)CCC(=O)N[C@@H](CCCN(O)C(C)=O)C(=O)N[C@@H](C(=O)N[C@@H]2C(=O)N3C2SC(C)(C)[C@@H]3C(=O)O)c2ccccc2)c1OC(C)=O (some centres unmarked) [MG-1-186]

- MIC (P. aeruginosa KW799/wt; Pseudomonas aeruginosa, KW799/WT, Table 7, read-out: MIC): > 50 µM
- MIC (A. baumannii ATCC 17961; [11]): > 50 µM
- MIC [1, 12]: > 50 µM
Compound: N[C@@H](C(=O)N[C@@H]1C(=O)N2C(C(=O)O)=C(Cl)CS[C@H]12)c1ccccc1 [cefaclor, reference compound]

- MIC (P. aeruginosa KW799/wt; Table 7, read-out: MIC): 0.05 µM (≈ 0.0384 µg/mL)
- MIC (A. baumannii ATCC 17961; Table 7, read-out: MIC): 0.05 µM (≈ 0.0384 µg/mL)
- MIC ([1]; Table 7): 1.56 µM (≈ 1.2 µg/mL)
Compound: O=C(CN(CCCCNC(=O)c1cccc(O)c1O)C(=O)c1cccc(O)c1O)NC(C(=O)NC1C(=O)N2C(C(=O)O)=C(Cl)CSC12)c1ccccc1 (centres unmarked) [YML-1-109]
- antibacterial activity (in words) [2]: comparable to the loracarbef conjugate YML-1-91

- MIC (P. aeruginosa KW799/wt; [13]): 0.025 µM (≈ 0.0188 µg/mL)
- MIC (Pa4; Table 5): 12 µM (≈ 9 µg/mL)
- MIC (Pa6; Table 5, read-out: MIC): 6 µM (≈ 4.5 µg/mL)
- MIC ([3]; Table 5): > 100 µM
- MIC (A. baumannii ATCC 17961; [14]): 0.03 to 0.06 µM (≈ 0.0225 to 0.045 µg/mL)
- MIC (A. baumannii ATCC 17961; [11]): 0.1 µM (≈ 0.075 µg/mL)
- MIC [1, 15]: 1.5 µM (≈ 1.13 µg/mL)
Compound: O=C(CN(CCCCNC(=O)c1cccc(O)c1O)C(=O)c1cccc(O)c1O)N[C@H](C(=O)N[C@@H]1C(=O)N2C(C(=O)O)=C(Cl)CC[C@H]12)c1ccccc1 [YML-I-60]
- growth inhibition with hydrogel / multi-day diffusion (in words) ([4]; plates stored at 4° C. for 24, 48 and 72 hours, then 37° C., or gel streaked on inoculated dish): zones of inhibition increased dramatically after each day

- MIC (A. baumannii ATCC 17961; read-out: MIC): 0.025 µM (≈ 0.027 µg/mL)
Compound: O=C(CCC(=O)N(CCCCNC(=O)c1cccc(O)c1O)CCCNC(=O)c1cccc(O)c1O)NCCCCCN(O)C(=O)CCCC(=O)NC(C(=O)NC1C(=O)N2C(C(=O)O)=C(Cl)CSC12)c1ccccc1 (centres unmarked) [MG-1-285]

- MIC (P. aeruginosa KW799/wt; [13]): 200 µM (≈ 69.9 µg/mL)
- MIC (P. aeruginosa KW799/wt; Pseudomonas aeruginosa, KW799/WT, iron deficient media, read-out: MIC in Fe(−)MHII Media): 250 µM (≈ 87.4 µg/mL)
- MIC (Pa4; Table 5): > 200 µM
- MIC (Pa6; Table 5, read-out: MIC): > 200 µM
- MIC ([3]; Table 5): > 200 µM
- MIC (A. baumannii ATCC 17961; [14]): > 200 µM
- MIC (A. baumannii ATCC 17961; [11]): > 200 µM
- MIC (A. baumannii ATCC 17961; Acinetobacter baumannii, ATCC17961, iron deficient media, read-out: MIC in Fe(−)MHII Media): 250 µM (≈ 87.4 µg/mL)
- MIC (A. baumannii ATCC 17961; Acinetobacter baumannii, ATCC17961, text, read-out: MIC): > 250 µM
- MIC [1, 12]: > 200 µM
- MIC [1, 15]: > 200 µM
Compound: CC1(C)S[C@@H]2[C@H](NC(=O)[C@H](N)c3ccccc3)C(=O)N2[C@H]1C(=O)O [ampicillin, reference compound]
- susceptibility of the clinical isolate (in words) [3]: resistant
- zones of inhibition (in words) [7]: inactive
- zones of inhibition (in words) [4]: inactive
